Reference: patent publication US9884012B2, “Use of PEDF-derived polypeptides for promoting muscle or tendon regeneration or arteriogenesis” (MacKay Memorial Hospital, priority 2012, dated 2018)

Key:
aortic ring explants = experiment: rat aortic ring sprouting assay (ex vivo neovessel sprouting); format: cell-based; details: aortic rings cultured with PEDF peptide, in words
[1] = system: bone marrow-derived mesenchymal stem cells (BM-MSCs); experiment: BM-MSC differentiation into tenocytes, tenomodulin (TNMD) gene expression by RT-PCR; format: cell-based, Sprague-Dawley rats; details: 50 nM peptide, 1% FBS-DMEM, 24 or 48 hours, in words
Experimental: Primary rat BM-MSCs were isolated from femur of male Sprague-Dawley rats (300-450 g). Femora were aseptically removed and dissected free of adhering tissues, and then the marrow cavities were flushed by injection of DMEM medium. Collected bone marrow cells were incubated in a 100×15-mm Petri dish in DMEM medium supplemented with 10% FBS, 100 U/ml penicillin, and 100 μg/ml streptomycin for 2 weeks in 5% CO2 at 37° C. The medium was replaced every 2 to 3 days. For passage, near-confluent cells were detached by 0.25% trypsin and then 2×10^5 subcultured cells were seeded in a well of 6-well plate and further cultured in the 10% FBS-DMEM. Before treatment, cells were starved for 12 hours in DMEM supplemented with 1% FBS followed by treatment with 50 nM PEDF-derived peptide (29-mer or 20-mer) in fresh 1% FBS-DMEM for either 24 or 48 hours.
The total RNA was extracted from cells using TRIzol and treated with RNase-free DNase I (Qiagen, Santa Clarita, Calif.) to remove genomic DNA and then purified with an RNA purification kit (Dynabeads). […]
The PCR products were electrophoresed in a 2% agarose gel containing ethidium bromide and visualized by UV illumination. The intensities of the PCR products were quantified densitometrically using a FUJI LAS-3000 system and Multi Gauge Ver. […]

soleus muscle = experiment: bupivacaine myonecrosis model, centrally nucleated muscle fibers; format: in vivo, Sprague-Dawley rats; details: for centrally nucleated fibers in regenerating muscle: 14 days after the bupivacaine injection, in words; for Centrally nucleated fibers (%): day 7 after the bupivacaine injection, soleus muscle, sustained-release formulation (Bolus: bolus 29-mer)
Experimental: To ascertain the number of centrally nucleated muscle fibers, sections were stained with H&E and then photographed as described above. At least 100 stained fibers were randomly chosen from each photo. Muscle fibers were judged centrally nucleated if one or more nuclei were not located at the periphery of the fiber. The data were expressed as a % of the total number of muscle fibers counted. Results were evaluated from 6 sections per muscle section, and 10 mice at each group.
To investigate the effects of the present PEDF peptides on muscle regeneration, a rat myonecrosis model of a single injection of bupivacaine into the soleus muscle was employed. Adult 10-week-old male Sprague-Dawley rats (initial body weight=312±11 g) were anesthetized by an intraperitoneal injection of a xylazine (10 mg/kg). Then, the soleus muscle was injured by unilaterally injecting 0.5 ml bupivacaine (AstraZeneca) with a disposable syringe with a 26-gauge needle. Briefly, the needle was inserted into the distal portion of the soleus muscle and then receded longitudinally to the proximal portion accompanying evenly bupivacaine solution injection. The solution was then injected throughout the entire length of the muscle as the needle was slowly withdrawn.
After bupivacaine injection, rats were divided equally (n=10/group) into four experimental groups and treated as follows. In the blank control group, the mice were treated with 50 μl of blank alginate gel. In the treatments groups, the mice received 50 μl of the sustained-release formulation (29-mer or 20-mer). The mice in the bolus control group received the bolus formulation (29-mer). Treatments were applied by way of a single intramuscular injection to the soleus muscle immediately after the bupivacaine perfusion.
In the process of muscle regeneration, newly generated muscle fibers typically contain central located nuclei. […] Statistical analysis regarding the percentage of centrally nucleated fibers was performed at day 7 after the bupivacaine injection, and the results were summarized in Table 6.

[2] = in vitro release of PEDF peptides from alginate gel in PBS; format: physicochemical; details: PBS pH 7.4, 37° C.; for peptide remained in the alginate gel matrix: after 24 hours, FITC-conjugated peptide in alginate hydrogel
Experimental: Each PEDF-derived short synthetic peptide (the 29-mer, 25-mer, 24-mer, 20-mer, 18-mer, MO 29-mer, or MO 20-mer; hereinbelow, PEDF peptide) was reconstituted in DMSO as stock (5 mM). Then, ultrapure alginate was mixed with the stock to obtain a 2% wt/vol alginate solution with PEDF peptide at a final concentration of 10 μM. The alginate solution was then filtered by membrane filter (pore size, 0.22 μm) and mixed with filtered calcium sulfate (0.21 g CaSO4/mL of dH2O) at a ratio of 25:1 (40 μL of CaSO4 per 1 mL of the filtered alginate solution). The mixture was let standing at RT for about 1 hour to allow for the cross-linking of the alginate. The resultant sustained-release formulation was then used in the treatment of muscle or tendon damage and ischemia.
To determine the release kinetics of 29-mer and 20mer, 100 μg of FITC-conjugated PEDF peptide was mixed with 100 μL alginate solution, and then hydrogels were prepared as set forth in the “Materials and Methods” section. Thereafter, 100 mg hydrogel was incubated in 1.5 ml of PBS (pH 7.4) in microcentrifuge tube and placed in an orbital shaking incubator over a 6-day period at 37° C. The tube was centrifuged at each predetermined time point and then 200 μL of supernatant was removed and stored at −80° C. for further analysis, and 200 μL of fresh PBS was added to the tube to replace the supernatant withdrawn. The concentration of FITC-conjugated PEDF peptide present in the collected supernatants was determined using a fluorimeter in 96-well format. A known non-encapsulated FITC-peptide was used to generate a standard curve. Triplicate data were used for analysis.

Sequence	neovessel phenotype by dual immunofluorescence (α-SMA / isolectin B4) (aortic ring explants)	tenocyte differentiation of BM-MSCs (TNMD gene expression) [1]	centrally nucleated fibers in regenerating muscle (soleus muscle)	Centrally nucleated fibers (%) (soleus muscle)	peptide remained in the alginate gel matrix [2]	peptide released from alginate gel ([2]; in the first 3 days)	peptide released from alginate gel ([2]; within the first 4 days) [%]
SLGAEQRTESIIHRALYYDL [20-mer, synthetic peptide corresponding to residues 93-112 of human PEDF]	displayed arteriole phenotype with a SMC coating	effective inducer of tenocyte-like cell differentiation	much less centrally nucleated fibers	63.3 ± 7.4	~35%	about 90%	–
SLGAEQRTESIIHRALYYDLISSPDIHGT [29-mer, synthetic peptide corresponding to residues 93-121 of human PEDF]	displayed arteriole phenotype with a SMC coating	effective inducer of tenocyte-like cell differentiation	much less centrally nucleated fibers	75.2 ± 7.0	approximately 48%	–	90
